Laboratory results taken from patent US20250360505A1, “MICRO-BIOELECTROCHEMICAL CELL DEVICES AND METHODS OF DETECTING ELECTRON FLOWS” (Washington University, priority 2019, published 2025).

System: Rhodopseudomonas palustris TIE-1 wild-type biofilms
Assay: μ-BEC current density measurement of extracellular electron uptake (EEU) by surface-attached biofilms treated with photosynthetic ETC inhibitors
Assay type: cell-based
Conditions: working electrode poised at +100 mV vs. SHE, inhibitor concentration not given
[1] = illuminated (phototrophic) conditions

| Compound | Current density (dark conditions) | Current density [1] |
| --- | --- | --- |
| antimycin A | −3.46±1.80 nA cm^−2 | 12.46±1.34 nA cm^−2 |
| N#CC(C#N)=NNc1cccc(Cl)c1 [CCCP, carbonyl cyanide m-chlorophenyl hydrazone] | −18.4±14.0 nA cm^−2 | 21.2±9.13 nA cm^−2 |
